Experimental findings from patent US6867207B2, “IL-5 inhibiting 6-azauracil derivatives” (Janssen Pharmaceutica N.V., priority 1997, dated 2005) are described below.

By inhibition is commonly meant the relative decrease from the control value, in per cent. A word on the melting point: it is the temperature, or range, at which the solid turns liquid.

One data set deals with IL-5 production. Nature of the data set: In vitro inhibition of IL-5 production in human blood (phytohemagglutinin-stimulated whole blood, ELISA).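 For all read-outs here: values marked with an asterisk were tested at 10 µM and unmarked values at 1 µM.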 The settings on record: test dose 1×10^−6 M, 48 hours; for inhibition at 1 µM: read-out: % inh. (percentage inhibition of IL-5 production). The data set is classed as cell-based. The gist of the method:
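Percent inhibition of IL-5, quantified by ELISA in cell-free supernatants, is given at a single dose of 1×10^−6 M (or 1×10^−5 M). Threefold-diluted human whole blood from healthy men received compound for 60 min at 37° C before 48 h PHA stimulation at 2 μg/mL.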
Background: An ELISA detects its analyte on a solid surface through an enzyme-linked reagent.

SMILES strings stand for the structures.

As to `O=C(CO)Nc1ccccc1-c1nnc(C(c2ccc(Cl)cc2)c2c(Cl)cc(-n3ncc(=O)[nH]c3=O)cc2Cl)o1` (racemic) [Compound 213, (±)-N-[2-[5-[(4-chlorophenyl)[2,6-dichloro-4-(4,5-dihydro-3,5-dioxo-1,2,4-triazin-2(3H)-yl)phenyl]methyl]-1,3,4-oxadiazol-2-yl]phenyl]-2-hydroxyacetamide], the melting point came to 235 °C. In the data set on IL-5 production, the inhibition at 1 µM was found to be 32%.

In the case of `O=C(O)c1sc(C(c2ccc(Cl)cc2)c2c(Cl)cc(-n3ncc(=O)[nH]c3=O)cc2Cl)nc1-c1ccccc1` (racemic) [Compound 299, (±)-2-[(4-chlorophenyl)[2,6-dichloro-4-(4,5-dihydro-3,5-dioxo-1,2,4-triazin-2(3H)-yl)phenyl]-methyl]-4-phenyl-5-thiazolcarboxylic acid], the melting point was 206 °C. Also, the inhibition at 1 µM in the data set on IL-5 production worked out at 38%. `CN(C)C(=O)c1sc(C(c2ccc(Cl)cc2)c2c(Cl)cc(-n3ncc(=O)[nH]c3=O)cc2Cl)nc1-c1ccccc1` (racemic) [Compound 303, (±)-N,N-dimethyl-2-[(4-chlorophenyl)[2,6-dichloro-4-(4,5-dihydro-3,5-dioxo-1,2,4-triazin-2(3H)-yl)phenyl]methyl]-4-phenylthiazol-5-carboxamide] showed a melting point of 150 °C. In the data set on IL-5 production, the inhibition at 1 µM was determined as 85%. On the same counts, the results for `CN(C)Cc1sc(C(c2ccc(Cl)cc2)c2c(Cl)cc(-n3ncc(=O)[nH]c3=O)cc2Cl)nc1-c1ccccc1F` (racemic) [Compound 325, (±)-2-[4-[(4-chlorophenyl)[5-[(dimethylamino)methyl]-4-(2-fluorophenyl)-2-thiazolyl]methyl]-3,5-dichlorophenyl]-1,2,4-triazine-3,5(2H,4H)-dione] are 250 °C and 95%.

With `NCc1sc(C(c2ccc(Cl)cc2)c2c(Cl)cc(-n3ncc(=O)[nH]c3=O)cc2Cl)nc1-c1ccccc1` (racemic) [Compound 329, (±)-2-[4-[[5-(aminomethyl)-4-phenyl-2-thiazolyl](4-chlorophenyl)methyl]-3,5-dichlorophenyl]-1,2,4-triazine-3,5(2H,4H)-dione], the melting point worked out at 170 °C. The inhibition at 1 µM in the data set on IL-5 production was found to be 88%.

`O=c1cnn(-c2ccc(C(c3ccc(Cl)cc3)c3nc(-c4ccccc4)cs3)c(Cl)c2)c(=O)[nH]1` (racemic) [Compound 419, (±)-2-[3-chloro-4-[(4-chlorophenyl)(4-phenyl-2-thiazolyl)methyl]phenyl]-1,2,4-triazine-3,5(2H,4H)-dione] yielded a melting point of 90 °C. Besides, the inhibition at 1 µM in the data set on IL-5 production came to 5%. On the same counts, the results for `O=c1cnn(-c2cc(Cl)c(C(c3ccc(Cl)cc3)c3nc(-c4ccccc4)no3)c(Cl)c2)c(=O)[nH]1` (racemic) [Compound 429, (±)-2-[3,5-dichloro-4-[(4-chlorophenyl)(3-phenyl-1,2,4-oxadiazol-5-yl)methyl]phenyl]-1,2,4-triazin-3,5(2H,4H)-dione] are 128 °C and 78%. Regarding `CCOc1ccc2nc(SC(c3ccc(Cl)c(C(F)(F)F)c3)c3c(Cl)cc(-n4ncc(=O)[nH]c4=O)cc3Cl)sc2c1` (centres unmarked) [Compound 394], the “% inh. (percentage inhibition of IL-5 production)” value with IL-5 production came out at 93%. Consider `O=c1cnn(-c2cc(Cl)c(C(Sc3nc4ccccc4[nH]3)c3ccc(Cl)c(C(F)(F)F)c3)c(Cl)c2)c(=O)[nH]1` (centres unmarked) [Compound 396], for which the “% inh. (percentage inhibition of IL-5 production)” value with IL-5 production turned out to be 28%. Regarding `O=c1cnn(-c2cc(Cl)c(C(Sc3nc(-c4ccc(F)cc4F)cs3)c3ccc(Cl)c(C(F)(F)F)c3)c(Cl)c2)c(=O)[nH]1` (centres unmarked) [Compound 397], the “% inh. (percentage inhibition of IL-5 production)” value in the data set with IL-5 production is 83%.
